Values quoted from earlier work in patent US11420990B2, “Ruthenium complex containing alkynyl group, method of synthesizing the same and use thereof” (GUANGDONG PHARMACEUTICAL UNIVERSITY, priority 2018, dated 2022).

Tested on: cancer cells
Conditions: background statement

Compound: [Ru+2].c1ccc(-c2ccccn2)nc1.c1ccc(-c2ccccn2)nc1.c1ccc2nc3c4cccnc4c4ncccc4c3nc2c1 [[Ru(bpy)2(dppz)]^2+]
- cytotoxicity to cancer cells (in words): insignificant cytotoxicity
